Measurements from US11370825B2, “Polypeptides, cells, and methods involving engineered CD16” (Regents of the University of Minnesota, priority 2014, dated 2022).

What was measured:
iPSC-derived NK cells = assay: Cell surface CD16a on iPSC-derived NK cells stimulated with K562 cells, flow cytometry; format: cell-based, human; conditions: iPSC-derived NK cells with K562 target cells (2:1 ratio), four hours at 37° C.
ADAM17 = assay: Anti-ADAM17 mAb staining of NK92 cells expressing CD16a or CD16a/S197P, flow cytometry; format: cell-based, human; conditions: NK92 cells expressing CD16a compared with CD16a/S197P; multiple anti-ADAM17 mAbs
Experimental: FIG. 4. Effects of the engineered S197P mutation on CD16a shedding in NK cells. NK92 cells transduced with empty vector (vector only), CD16a, or CD16a/S197P were treated without (Unstim.) or with PMA (100 ng/ml) for 30 minutes at 37° C. (A), with IL-12 and IL-18 (100 ng/ml and 400 ng/ml, respectively) for 24 hours at 37° C. (B), or with Raji cells and rituximab for 60 minutes at 37° C. (C). Cell surface levels of CD16a were determined by flow cytometry. Isotype-matched negative control antibody staining is indicated by a dotted line. […] Soluble CD16a levels were determined by ELISA. […] For all histogram plots, the x-axis=Log 10 fluorescence, the y-axis=cell number, and the data are representative of at least 3 independent experiments.
(§1) For cell staining, nonspecific antibody binding sites were blocked and cells were stained with the indicated antibodies and examined by flow cytometry, as previously described (Wang et al., 2013, Biochim Biophys Acta. 1833:680-685; Romee et al., 2013, Blood 121:3599-3608). […] Human CD16 was detected by the mAbs 3G8 (BioLegend, Inc., San Diego, Calif.) and DJ130c (Santa Cruz Biotech, Santa Cruz, Calif.). CD107a was detected by the mAb H4A3 (Biolegend, Inc., San Diego, Calif.). ADAM17 was detected by the mAbs M220 (Doedens et al., 2000, J Biol Chem. 275:14598-14607), 111633, and 111623 (R&D Systems, Inc., Minneapolis, Minn.). […]

NK92 cells = assay: NK92 cell activation: CD107a up-regulation on incubation with Raji cells with or without rituximab, flow cytometry; format: cell-based, human
Experimental: (§2) FIG. 5. Effects of the engineered S197P mutation on CD16a function. (A) NK92 cells expressing CD16a or CD16a/S197P at equivalent levels (left panel) were treated with monomeric human IgG (0-20 μg/ml). As controls, cells were also treated with monomeric human IgA (20 μg/ml), and NK92 parent cells were treated with IgG (20 μg/ml) (bar). Antibody binding was determined by flow cytometry, as described in Materials and Methods. […] Statistical significance is indicated as *P<0.05 versus IgG (0 μg/ml), IgA, or NK92 parent cells+IgG. (B) Mock transduced NK92 cells or NK92 cells expressing CD16a or CD16a/S197P were incubated in the absence (Unstim.) or presence of Raji cells treated with or without anti-CD20 rituximab for the indicated time points at 37° C. NK92 cell activation was assessed by the up-regulation in CD107a staining by flow cytometry. For the histogram plots, the x-axis=Log 10 fluorescence and the y-axis=cell number. Data are representative of at least 3 independent experiments.
HEK293 and NK92 cells in RPMI 1640 media (Mediatech, Inc., Manassas, Va.) were activated with 15 ng/ml and 100 ng/ml, respectively, PMA for 30 minutes at 37° C. NK92 cells were activated with IL-12 (PeproTech Inc, Rocky Hill, N.J.) and IL-18 (R&D Systems, Inc., Minneapolis, Minn.) at 100 ng/ml and 400 ng/ml, respectively, for the indicated time points. NK92 cell activation through CD16a was mediated by their incubation with the CD20-positive Burkitt's lymphoma cell line Raji (ATCC, grown according to the depository's instructions) (1:1 ratio) treated with the anti-CD20 mAb rituximab (1 μg/ml) (Genentech, Inc., South San Francisco, Calif.), as described previously (Romee et al., 2013, Blood 121:3599-3608). Excess rituximab was removed by washing the Raji cells. In some experiments, NK92 cells were pre-incubated for 30 minutes with the selective ADAM17 inhibitor BMS566394 (5 μM) (Bristol-Myers Squibb Company, Princeton, N.J.). […]
as §1, with “Minn.). Human L-selectin was detected by the mAb LAM1-116 (Ancell Corp., Stillwater, Minn.).” for “Minn.).”

monomeric human IgG = assay: Antibody binding assay: monomeric human IgG and IgA binding to NK92 cells expressing CD16a or CD16a/S197P; conditions: NK92 cells expressing the receptor; IgA 20 μg/ml
Experimental: as §2
Cell binding to monomeric human IgG and IgA (Sigma-Aldrich, St. Louis, Mo.) was performed as previously described with some modifications (Dong et al., 2014, Arthritis Rheumatol. 66:1291-1299). […] The cells were washed and then immediately analyzed by flow cytometry.

[1] = NK92 cells incubated with Raji cells alone
[2] = NK92 cells incubated with Raji cells treated with rituximab

Substance	cell surface expression of CD16a after stimulation (iPSC-derived NK cells)	ADAM17 cell surface levels (ADAM17)	up-regulation of CD107a (NK92 cells; [1])	up-regulation of CD107a (NK92 cells; [2])	monomeric IgA binding (control) (monomeric human IgG)
CD16a/S197P: Human CD16a (FcγRIIIa, SEQ ID NO:1) with serine-197 substituted by proline in the membrane proximal cleavage region; expressed recombinantly in cells	remained stable	identical cell surface levels	marginally up-regulated	considerable up-regulation	essentially background levels
CD16a: Wild-type human IgG Fc receptor CD16a (FcγRIIIa), valine allelic variant, recombinant comparator [reference compound]	marked down-regulation	identical cell surface levels	marginally up-regulated	considerable up-regulation	essentially background levels
